≈ marks a conversion by molar mass, not a printed value. Calls of active or inactive are those of the source. The rule behind the calls is not given here.
Key:
[1] = test system: HT-1080; test: Cytotoxicity against human HT1080 cells after 72 hrs; format: functional; settings: for CC50: HT-1080, 72 h, read-out: TD50 (the source's name)
[2] = test system: MG-22A; test: Cytotoxicity against mouse MG22A cells after 72 hrs; format: functional; settings: read-out: TD50 (the source's name)
[3] = Cytotoxicity against mouse NIH3T3 cells after 72 hrs; format: cell-based; settings: read-out: TD50
[4] = test system: HT-1080; test: Effect on nitric oxide production in human HT1080 cells at 100 ug/ml by crystal violet coloration assay; format: functional
[5] = test system: MG-22A; test: Effect on nitric oxide production in mouse MG22A cells at 100 ug/ml by crystal violet coloration assay; format: functional
[6] = test system: CCRF S-180; test: Antitumor activity against S180 cells inoculated in ICR mouse assessed as inhibition of tumor growth at 10 mg/kg, ip after 9 days; format: functional; settings: for inhibition in vivo at 10 mg/kg: CCRF S-180, ip, 216 h, route intraperitoneal
[7] = test system: Mus musculus; test: Toxicity in ICR mouse assessed as body weight at 10 mg/kg, ip after 9 days; format: organism-based; set-up: dose 10 mg/kg, route intraperitoneal; settings: in vivo, 216 h
[8] = test system: HT-1080; test: Effect on cell morphology in human HT1080 cells after 72 hrs; format: functional, cell-based
[9] = test system: CCRF S-180; test: Antitumor activity against S180 cells inoculated in ICR mouse assessed as inhibition of tumor growth at 10 mg/kg, ip after 8 days; format: functional; settings: CCRF S-180, ip, 192 h, route intraperitoneal
[10] = test system: Mus musculus; test: Toxicity in ICR mouse assessed as body weight at 10 mg/kg, ip after 8 days; format: organism-based; set-up: dose 10 mg/kg, route intraperitoneal; settings: in vivo, 192 h
[11] = test system: HT-1080; test: Induction of apoptosis in human HT1080 cells after 72 hrs; format: functional, cell-based
[12] = test system: MG-22A; test: Induction of apoptosis in mouse MG22A cells after 72 hrs; format: functional, cell-based
[13] = test system: CCRF S-180; test: Antitumor activity against S180 cells inoculated in ICR mouse assessed as inhibition of tumor growth at 2 mg/kg, ip after 2 days; format: functional; settings: CCRF S-180, ip, 48 h, route intraperitoneal
[14] = test system: Mus musculus; test: Toxicity in ICR mouse assessed as body weight at 2 mg/kg, ip after 2 days; format: organism-based; set-up: dose 2 mg/kg, route intraperitoneal; settings: in vivo, 48 h

Row | Compound | CC50 [1] [µg/mL] | CC50 [2] [µg/mL] | CC50 at 72 h [3] [µg/mL] | Activity [4] [%] | Activity [5] [%] | inhibition in vivo at 10 mg/kg [6] [%] | Activity [7] [%] | Activity [8] | inhibition in vivo at 10 mg/kg [9] [%] | Activity [10] [%] | Activity [1] | Activity [11] | Activity [12] | inhibition in vivo at 2 mg/kg [13] [%] | Activity [14] [%] | Activity [6]
1 | Cc1nn[se]c1C(=O)N1CCCCC1 | 31 (≈ 120 µM) | 27 (≈ 105 µM) | 123 (≈ 476 µM) | 100 | 400 | 71 | 8 |  |  |  |  |  |  |  |  | 
2 | Cc1nn[se]c1C(=O)N[C@H](C)c1ccccc1 | 100 (≈ 340 µM) | 29 (≈ 98.6 µM) | 195 (≈ 663 µM) | 17 | 400 | 20 | 3 | inactive |  |  |  |  |  |  |  | 
3 | Cc1nn[se]c1C(=O)N[C@@H](C)c1ccccc1 | 31 (≈ 105 µM) | 32 (≈ 109 µM) | 407 (≈ 1380 µM) | 300 | 200 |  |  | Active | -23 | 0 |  |  |  |  |  | 
4 | Cc1nn[se]c1C(=O)N(C)C |  | 35 (≈ 160 µM) | 351 (≈ 1610 µM) | 10 | 63 |  |  |  |  |  | Not toxic | Active | Active | 58 | 17 | 
5 | Cc1nn[se]c1C(=O)N(C(C)C)C(C)C |  | 31 (≈ 113 µM) | 718 (≈ 2620 µM) | 29 | 200 | -32 | 0 |  |  |  | Not toxic |  |  |  |  | 
6 | Cc1nn[se]c1C(=O)N1CCOCC1 |  | 34 (≈ 131 µM) | 280 (≈ 1080 µM) | 11 | 250 |  | 8 |  |  |  | Not toxic |  |  |  |  | Non-toxic
7 | Cc1nn[se]c1C(=O)N1CCCC1 | 19 (≈ 77.8 µM) | 33 (≈ 135 µM) | 214 (≈ 876 µM) | 350 | 350 | 85 | 23 |  |  |  |  |  | Active |  |  | 

From ChEMBL document CHEMBL1140612, “4-Methyl-1,2,3-selenadiazole-5-carboxylic acid amides: antitumor action and cytotoxic effect correlation” (Eur J Med Chem, 2007)
